Measured values as given in patent publication US11434222B2, “MAGL inhibitors” (H. LUNDBECK A/S, priority 2020, dated 2022).
Read-outs that look alike come from different tables or passages of the source.

What was measured:
[1] = In vitro human hepatocyte stability; type: in vitro ADME; details: cryopreserved human hepatocytes (pooled donor), human hepatocytes 0.5×10^6 cells/mL, read-out: Scaled-up unbound CLint
Procedure: The metabolic stability of test articles (1 μM) in commercially sourced, pooled donor, cryopreserved human hepatocytes (0.5×10^6 cells/mL) was determined in duplicate. The CLint reactions (250 μL) were initiated by addition of test compound. Aliquots (25 μL) were taken at 0, 15, 30, 45, 60, 90, 120 and 240 minutes and then protein crashed with ice-cold acetonitrile containing internal standard then centrifuged (3220 g for 25 minutes). Supernatant was used for LC-MS/MS analysis. The in vitro half-life (in vitro t1/2) was determined from the slope value: in vitro t1/2=−0.693/k. Conversion of the in vitro t1/2 (in min) into the scale-up unbound intrinsic clearance (Scaled-up unbound CLint, in mL/min/kg) was done using the following equation (mean of duplicate determinations), with data shown in Table 5: Scaled-up unbound CLint=kV/N×scaling factor. V=incubation volume (0.25 mL); N=number of hepatocytes per well ([…]). Scaling factors for in vivo intrinsic clearance prediction are listed below: […]

[2] = Kinetic solubility in PBS; type: physicochemical; details: aqueous buffer, kinetic from dmso stock
Procedure: The kinetic solubility of test articles was determined in PBS at pH 2.0 and pH 7.4 in duplicate. A stock solution of test compound in DMSO (10 mM) was incubated at RT for 2 hours with shaking at 1,100 RPM. The sample was then filtered using a vacuum manifold, diluted, and analyzed by LC-MS/MS. Chromatographic conditions: Phenomenex Synergi 4μ Hydro-PR 80A column (2.0×30 mm) coupled with pre-guard column; mobile phase=0.1% formic acid in acetonitrile and 0.1% formic acid in water; flowrate=0.65 mL/min; column temperature=40° C.; injection volume: 3 μL.
Mass conditions: Turbo spray ion source; ESI ionization model; MRM scan type; Collison gas=6 L/min; Curtain gas=30 L/min; Nebulize gas=50 L/min; Auxiliary gas=50 L/min; Temperature=500 degrees C.; Ion spray voltage=+5500 v (positive MRM).
The filtered solution was analyzed and quantified against a standard of known concentration in DMSO using UPLC coupled with mass spectral peak identification and quantitation. Solubility values of the test articles were calculated using Microsoft Excel as follows (DF is the dilution factor): […]

MAGL [3] = biological target: T1, MAGL (Mus musculus, UniProt O35678); experiment: In vivo MAGL inhibition in mouse brain proteomes after oral gavage; details: 5 mg/kg oral gavage, 4 h after administration, read-out: MAGL % inh. 5 mg/kg (mouse)
T1 construct: brain proteomes were prepared and analyzed according to previously established methods; from tissue; host or cells: brain of wild-type C57Bl/6J mice
T1 sequence (O35678 1-303): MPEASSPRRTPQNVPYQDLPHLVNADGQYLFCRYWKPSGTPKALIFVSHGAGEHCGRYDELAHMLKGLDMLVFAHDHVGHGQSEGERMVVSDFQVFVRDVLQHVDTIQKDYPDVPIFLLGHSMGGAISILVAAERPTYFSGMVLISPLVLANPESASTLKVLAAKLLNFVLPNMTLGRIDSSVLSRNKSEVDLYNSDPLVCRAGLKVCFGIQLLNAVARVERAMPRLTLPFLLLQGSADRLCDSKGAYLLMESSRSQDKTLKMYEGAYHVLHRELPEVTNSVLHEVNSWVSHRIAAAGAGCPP
Procedure: Inhibitors were administered to wild-type C57B1/6J by oral gavage in a vehicle of polyethylene glycol. Each animal was sacrificed 4 h following administration and brain proteomes were prepared and analyzed according to previously established methods (See Niphakis, M. J., et al. (2011) ACS Chem. Neurosci. and Long, J. Z., et al. Nat. Chem. Biol. 5:37-44).

MAGL [4] = biological target: T2, MAGL (Homo sapiens, UniProt Q99685); experiment: In vitro competitive activity-based protein profiling (PC3 human cell membrane proteomes); type: biochemical
T2 construct: PC3 human cell membrane proteomes; endogenous in cells; host or cells: PC3 human cells (membrane proteome)
T2 sequence (Q99685 1-303): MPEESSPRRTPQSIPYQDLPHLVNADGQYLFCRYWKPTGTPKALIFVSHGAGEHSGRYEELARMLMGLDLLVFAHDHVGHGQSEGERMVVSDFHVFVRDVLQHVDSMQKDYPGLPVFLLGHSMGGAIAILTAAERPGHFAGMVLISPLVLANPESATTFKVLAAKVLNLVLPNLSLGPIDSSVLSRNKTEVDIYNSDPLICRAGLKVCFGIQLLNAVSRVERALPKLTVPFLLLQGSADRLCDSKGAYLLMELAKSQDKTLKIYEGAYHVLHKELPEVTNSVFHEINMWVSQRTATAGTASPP
Procedure: PC3 human cell membrane proteomes (50 µL, 2.0 mg/mL total protein concentration) were preincubated with varying concentrations of inhibitors at 37° C. After 30 min, the ABPP probe JW912-Bodipy (1.0 µL, 50 µM in DMSO) was added and the mixture was incubated for 30 min at room temperature. Reactions were quenched with SDS loading buffer (15 μL-4×) and run on SDS-PAGE. Following gel imaging, serine hydrolase activity was determined by measuring fluorescent intensity of gel bands corresponding to MAGL using ImageJ 1.43u software. Intensities were converted to percent enzyme activity by normalizing to DMSO controls. IC50 values were determined by fitting percent enzyme activities to a non-linear regression, 4-parameter, sigmoidal dose response function in Prism GraphPad.

[5] = PBS pH 7.4, RT, read-out: pH 7.4 Solubility (kinetic)
[6] = PBS pH 2.0, RT, read-out: pH 2 Solubility (kinetic)

SMILES	CLint scaled at 1 μM [1]	solubility kinetic at 2 h [2, 5]	inhibition at 5 mg/kg (MAGL [3])	solubility kinetic at 2 h [2, 6]	MAGL % inh. 1 µM (human PC3) (MAGL [4])
CP(C)(=O)c1ccc(NC(=O)C2CC23CCN(C(=O)OC(C(F)(F)F)C(F)(F)F)CC3)cn1 (single isomer, unassigned) [Example 20, 1,1,1,3,3,3-hexafluoropropan-2-yl (R or S)-1-((6-(dimethylphosphoryl)pyridin-3-yl)carbamoyl)-6-azaspiro[2.5]octane-6-carboxylate]	0.85 mL/min/kg	310 µM	0%	–	–
O=C(Nc1ccncc1)C1CC12CCN(C(=O)OC(C(F)(F)F)C(F)(F)F)CC2 (single isomer, unassigned) [Example 24, 1,1,1,3,3,3-hexafluoropropan-2-yl (R or S)-1-(pyridin-4-ylcarbamoyl)-6-azaspiro[2.5]octane-6-carboxylate]	11.9 mL/min/kg	197 µM	90%	–	–
O=C(Nc1cncc(F)c1)C1CC12CCN(C(=O)OC(C(F)(F)F)C(F)(F)F)CC2 (single isomer, unassigned) [Example 40, 1,1,1,3,3,3-hexafluoropropan-2-yl (R or S)-1-((5-fluoropyridin-3-yl)carbamoyl)-6-azaspiro[2.5]octane-6-carboxylate]	43.2 mL/min/kg	100 µM	100%	163 µM	100%
O=C(Nc1cncnc1)C1CC12CCN(C(=O)OC(C(F)(F)F)C(F)(F)F)CC2 (single isomer, unassigned) [Example 96, 1,1,1,3,3,3-hexafluoropropan-2-yl (R or S)-1-(pyrimidin-5-ylcarbamoyl)-6-azaspiro[2.5]octane-6-carboxylate]	17.1 mL/min/kg	237 µM	100%	–	–
Cc1cnc(NC(=O)C2CC23CCN(C(=O)OC(C(F)(F)F)C(F)(F)F)CC3)cn1 (single isomer, unassigned) [Example 112, 1,1,1,3,3,3-hexafluoropropan-2-yl (R or S)-1-((5-methylpyrazin-2-yl)carbamoyl)-6-azaspiro[2.5]octane-6-carboxylate]	9.59 mL/min/kg	109 µM	75%	185 µM	–
O=C(NCC1CCOCC1)[C@H]1CC12CCN(C(=O)OC(C(F)(F)F)C(F)(F)F)CC2 (single isomer, unassigned) [Example 117]	20.6 mL/min/kg	251 µM	100%	–	–
Cn1ccc(NC(=O)C2CC23CCN(C(=O)OC(C(F)(F)F)C(F)(F)F)CC3)n1 (single isomer, unassigned) [Example 127, 1,1,1,3,3,3-hexafluoropropan-2-yl (R or S)-1-((1-methyl-1H-pyrazol-3-yl)carbamoyl)-6-azaspiro[2.5]octane-6-carboxylate]	9.51 mL/min/kg	292 µM	75%	275 µM	–
CC1(NC(=O)C2CC23CCN(C(=O)OC(C(F)(F)F)C(F)(F)F)CC3)CCOCC1 (single isomer, unassigned) [Example 132, 1,1,1,3,3,3-hexafluoropropan-2-yl (R or S)-1-((4-methyltetrahydro-2H-pyran-4-yl)carbamoyl)-6-azaspiro[2.5]octane-6-carboxylate]	44.2 mL/min/kg	–	100%	–	–
Cn1nccc1NC(=O)C1CC12CCN(C(=O)OC(C(F)(F)F)C(F)(F)F)CC2 (single isomer, unassigned) [Example 135, 1,1,1,3,3,3-hexafluoropropan-2-yl (R or S)-1-((1-methyl-1H-pyrazol-5-yl)carbamoyl)-6-azaspiro[2.5]octane-6-carboxylate]	16.8 mL/min/kg	–	100%	–	–
O=C(Nc1nccs1)C1CC12CCN(C(=O)OC(C(F)(F)F)C(F)(F)F)CC2 (single isomer, unassigned) [Example 138, 1,1,1,3,3,3-hexafluoropropan-2-yl (R or S)-1-(thiazol-2-ylcarbamoyl)-6-azaspiro[2.5]octane-6-carboxylate]	40.5 mL/min/kg	–	75%	–	–
